Experimental data from ChEMBL document CHEMBL1275492, “In vitro activity of ceftobiprole against pathogens from two phase 3 clinical trials of complicated skin and skin structure infections” (2008).
≈ marks a conversion by molar mass, not a printed value.

Tests used:
Assay type in all cases: functional
[1] = test system: Gemella morbillorum; experiment: Antibacterial activity against Gemella morbillorum obtained from complicated skin and skin structure infections […]
[2] = test system: Mammaliicoccus sciuri; experiment: Antibacterial activity against coagulase-negative Staphylococcus sciuri obtained from complicated skin and skin structure infections by agar dilution method
[3] = Antibacterial activity against Streptococcus sp. 'group C' obtained from complicated skin and skin structure infections by agar dilution method
[4] = test system: Streptococcus pyogenes; experiment: Antibacterial activity against Streptococcus pyogenes obtained from complicated skin and skin structure infections by agar dilution method
[5] = test system: Staphylococcus capitis; experiment: Antibacterial activity against coagulase-negative Staphylococcus capitis obtained from complicated skin and skin structure infections by agar dilution method
[6] = test system: Gemella; experiment: Antibacterial activity against Gemella spp. obtained from complicated skin and skin structure infections by agar dilution method
[7] = test system: Staphylococcus aureus; experiment: Antibacterial activity against methicillin susceptible Staphylococcus aureus obtained from complicated skin and skin structure infections by agar dilution method
[8] = test system: Micrococcus; experiment: Antibacterial activity against Micrococcus spp. obtained from complicated skin and skin structure infections by agar dilution method
[9] = test system: Staphylococcus cohnii; experiment: Antibacterial activity against coagulase-negative Staphylococcus cohnii obtained from complicated skin and skin structure infections by agar dilution method
[10] = test system: Staphylococcus aureus; experiment: Antibacterial activity against methicillin resistant Staphylococcus aureus obtained from complicated skin and skin structure infections by agar dilution method
[11] = test system: Streptococcus agalactiae; experiment: Antibacterial activity against Streptococcus agalactiae obtained from complicated skin and skin structure infections by agar dilution method
[12] = test system: Staphylococcus saprophyticus; experiment: Antibacterial activity against coagulase-negative Staphylococcus saprophyticus obtained from complicated skin and skin structure infections by agar dilution method
[13] = test system: Bacillus; experiment: Antibacterial activity against Bacillus spp. obtained from complicated skin and skin structure infections by agar dilution method
[14] = test system: Staphylococcus lugdunensis; experiment: Antibacterial activity against coagulase-negative Staphylococcus lugdunensis obtained from complicated skin and skin structure infections by agar dilution method
[15] = test system: Staphylococcus warneri; experiment: Antibacterial activity against coagulase-negative Staphylococcus warneri obtained from complicated skin and skin structure infections by agar dilution method
[16] = test system: Staphylococcus haemolyticus; experiment: Antibacterial activity against coagulase-negative Staphylococcus haemolyticus obtained from complicated skin and skin structure infections by agar dilution method
[17] = test system: Enterococcus faecium; experiment: Antibacterial activity against Enterococcus faecium obtained from complicated skin and skin structure infections by agar dilution method
[18] = test system: Staphylococcus hominis; experiment: Antibacterial activity against coagulase-negative Staphylococcus hominis obtained from complicated skin and skin structure infections by agar dilution method
[19] = test system: Staphylococcus epidermidis; experiment: Antibacterial activity against coagulase-negative Staphylococcus epidermidis obtained from complicated skin and skin structure infections by agar dilution method
[20] = test system: Staphylococcus; experiment: Antibacterial activity against methicillin-susceptible, coagulase-negative Staphylococcus obtained from complicated skin and skin structure infections by agar dilution method
[21] = test system: Staphylococcus lugdunensis; experiment: Antibacterial activity against methicillin-resistant, oxacillin-susceptible, coagulase-negative, mecA-positive Staphylococcus lugdunensis obtained from complicated skin and skin structure infections by agar dilution method
[22] = test system: Streptococcus constellatus; experiment: Antibacterial activity against Streptococcus constellatus obtained from complicated skin and skin structure infections by agar dilution method
[23] = test system: Staphylococcus intermedius; experiment: Antibacterial activity against Staphylococcus intermedius obtained from complicated skin and skin structure infections by agar dilution method
[24] = test system: Staphylococcus aureus; experiment: Antibacterial activity against Staphylococcus aureus obtained from complicated skin and skin structure infections by agar dilution method
[25] = test system: Enterococcus faecalis; experiment: Antibacterial activity against Enterococcus faecalis obtained from complicated skin and skin structure infections by agar dilution method
[26] = test system: Lactococcus lactis; experiment: Antibacterial activity against Lactococcus lactis obtained from complicated skin and skin structure infections by agar dilution method
[27] = test system: Aerococcus viridans; experiment: Antibacterial activity against Aerococcus viridans obtained from complicated skin and skin structure infections by agar dilution method
[28] = test system: Streptococcus mitis; experiment: Antibacterial activity against Streptococcus mitis obtained from complicated skin and skin structure infections by agar dilution method
[29] = Antibacterial activity against Streptococcus sp. 'group G' obtained from complicated skin and skin structure infections by agar dilution method

## CN[C@H](CC(C)C)C(=O)N[C@H]1C(=O)N[C@@H](CC(N)=O)C(=O)N[C@H]2C(=O)N[C@H]3C(=O)N[C@H](C(=O)N[C@H](C(=O)O)c4cc(O)cc(O)c4-c4cc3ccc4O)[C@H](O)c3ccc(c(Cl)c3)Oc3cc2cc(c3O[C@@H]2O[C@H](CO)[C@@H](O)[C@H](O)[C@H]2O[C@H]2C[C@](C)(N)[C@H](O)[C@H](C)O2)Oc2ccc(cc2Cl)[C@H]1O [VANCOMYCIN]
[1]
  MIC50: 1 µg/mL (≈ 0.69 µM)
  MIC90: 1 µg/mL (≈ 0.69 µM)
[2]
  MIC50: 1 µg/mL (≈ 0.69 µM)
  MIC90: 2 µg/mL (≈ 1.38 µM)
[3]
  MIC50: 0.5 µg/mL (≈ 0.345 µM)
  MIC90: 1 µg/mL (≈ 0.69 µM)
[4]
  MIC50: 0.5 µg/mL (≈ 0.345 µM)
  MIC90: 0.5 µg/mL (≈ 0.345 µM)
[5]
  MIC50: 1 µg/mL (≈ 0.69 µM)
  MIC90: 2 µg/mL (≈ 1.38 µM)
[6]
  MIC50: 1 µg/mL (≈ 0.69 µM)
  MIC90: 1 µg/mL (≈ 0.69 µM)
[7]
  MIC50: 1 µg/mL (≈ 0.69 µM)
  MIC90: 1 µg/mL (≈ 0.69 µM)
[8]
  MIC50: 1 µg/mL (≈ 0.69 µM)
  MIC90: 1 µg/mL (≈ 0.69 µM)
[9]
  MIC50: 1 µg/mL (≈ 0.69 µM)
  MIC90: 2 µg/mL (≈ 1.38 µM)
[10]
  MIC50: 1 µg/mL (≈ 0.69 µM)
  MIC90: 1 µg/mL (≈ 0.69 µM)
[11]
  MIC50: 0.5 µg/mL (≈ 0.345 µM)
  MIC90: 0.5 µg/mL (≈ 0.345 µM)
[12]
  MIC50: 1 µg/mL (≈ 0.69 µM)
  MIC90: 2 µg/mL (≈ 1.38 µM)
[13]
  MIC50: 1 µg/mL (≈ 0.69 µM)
  MIC90: 1 µg/mL (≈ 0.69 µM)
[14]
  MIC50: 1 µg/mL (≈ 0.69 µM)
  MIC90: 2 µg/mL (≈ 1.38 µM)
[15]
  MIC50: 1 µg/mL (≈ 0.69 µM)
  MIC90: 2 µg/mL (≈ 1.38 µM)
[16]
  MIC50: 1 µg/mL (≈ 0.69 µM)
  MIC90: 2 µg/mL (≈ 1.38 µM)
[17]
  MIC50: 1 µg/mL (≈ 0.69 µM)
[18]
  MIC50: 1 µg/mL (≈ 0.69 µM)
  MIC90: 2 µg/mL (≈ 1.38 µM)
[19]
  MIC50: 1 µg/mL (≈ 0.69 µM)
  MIC90: 2 µg/mL (≈ 1.38 µM)
[20]
  MIC50: 1 µg/mL (≈ 0.69 µM)
  MIC90: 2 µg/mL (≈ 1.38 µM)
[21]
  MIC50: 1 µg/mL (≈ 0.69 µM)
  MIC90: 2 µg/mL (≈ 1.38 µM)
[22]
  MIC50: 0.5 µg/mL (≈ 0.345 µM)
  MIC90: 0.5 µg/mL (≈ 0.345 µM)
[23]
  MIC50: 1 µg/mL (≈ 0.69 µM)
  MIC90: 1 µg/mL (≈ 0.69 µM)
[24]
  MIC50: 1 µg/mL (≈ 0.69 µM)
  MIC90: 1 µg/mL (≈ 0.69 µM)
[25]
  MIC: 1 µg/mL (≈ 0.69 µM)
  MIC50: 1 µg/mL (≈ 0.69 µM)
  MIC90: 2 µg/mL (≈ 1.38 µM)
[26]
  MIC50: 1 µg/mL (≈ 0.69 µM)
  MIC90: 1 µg/mL (≈ 0.69 µM)
[27]
  MIC50: 1 µg/mL (≈ 0.69 µM)
  MIC90: 1 µg/mL (≈ 0.69 µM)
[28]
  MIC50: 1 µg/mL (≈ 0.69 µM)
  MIC90: 1 µg/mL (≈ 0.69 µM)
[29]
  MIC: 0.25 µg/mL (≈ 0.173 µM)
  MIC50: 0.25 µg/mL (≈ 0.173 µM)
  MIC90: 0.5 µg/mL (≈ 0.345 µM)

## CC[C@H]1OC(=O)[C@H](C)[C@@H](O[C@H]2C[C@@](C)(OC)[C@@H](O)[C@H](C)O2)[C@H](C)[C@@H](O[C@@H]2O[C@H](C)C[C@H](N(C)C)[C@H]2O)[C@](C)(O)C[C@@H](C)C(=O)[C@H](C)[C@@H](O)[C@]1(C)O [ERYTHROMYCIN]
[1]
  MIC50: 0.03 µg/mL (≈ 0.0409 µM)
  MIC90: 8 µg/mL (≈ 10.9 µM)
[2]
  MIC50: 0.25 µg/mL (≈ 0.341 µM)
  MIC90: > 16 µg/mL
[3]
  MIC50: 0.03 µg/mL (≈ 0.0409 µM)
  MIC90: 0.12 µg/mL (≈ 0.164 µM)
[4]
  MIC50: 0.06 µg/mL (≈ 0.0818 µM)
  MIC90: 0.06 µg/mL (≈ 0.0818 µM)
[5]
  MIC50: 0.25 µg/mL (≈ 0.341 µM)
  MIC90: > 16 µg/mL
[6]
  MIC50: 0.03 µg/mL (≈ 0.0409 µM)
  MIC90: 8 µg/mL (≈ 10.9 µM)
[7]
  MIC50: 0.25 µg/mL (≈ 0.341 µM)
  MIC90: > 8 µg/mL
[8]
  MIC50: 0.03 µg/mL (≈ 0.0409 µM)
  MIC90: 8 µg/mL (≈ 10.9 µM)
[9]
  MIC50: 0.25 µg/mL (≈ 0.341 µM)
  MIC90: > 16 µg/mL
[10]
  MIC50: > 8 µg/mL
[11]
  MIC50: 0.06 µg/mL (≈ 0.0818 µM)
  MIC90: > 16 µg/mL
[12]
  MIC50: 0.25 µg/mL (≈ 0.341 µM)
  MIC90: > 16 µg/mL
[13]
  MIC50: 0.03 µg/mL (≈ 0.0409 µM)
  MIC90: 8 µg/mL (≈ 10.9 µM)
[14]
  MIC50: 0.25 µg/mL (≈ 0.341 µM)
  MIC90: > 16 µg/mL
[15]
  MIC50: 0.25 µg/mL (≈ 0.341 µM)
  MIC90: > 16 µg/mL
[16]
  MIC50: 0.25 µg/mL (≈ 0.341 µM)
  MIC90: > 16 µg/mL
[17]
  MIC50: 2 µg/mL (≈ 2.73 µM)
[18]
  MIC50: 0.25 µg/mL (≈ 0.341 µM)
  MIC90: > 16 µg/mL
[19]
  MIC50: 0.25 µg/mL (≈ 0.341 µM)
  MIC90: > 16 µg/mL
[20]
  MIC50: 0.25 µg/mL (≈ 0.341 µM)
  MIC90: > 8 µg/mL
[21]
  MIC50: > 8 µg/mL
[22]
  MIC50: ≤ 0.06 µg/mL
  MIC90: 0.06 µg/mL (≈ 0.0818 µM)
[23]
  MIC: ≤ 0.06 µg/mL
  MIC50: ≤ 0.06 µg/mL
  MIC90: 0.06 µg/mL (≈ 0.0818 µM)
[24]
  MIC50: 0.25 µg/mL (≈ 0.341 µM)
  MIC90: > 16 µg/mL
[25]
  MIC50: > 8 µg/mL
  MIC90: > 16 µg/mL
[26]
  MIC50: 0.03 µg/mL (≈ 0.0409 µM)
  MIC90: 8 µg/mL (≈ 10.9 µM)
[27]
  MIC50: 0.03 µg/mL (≈ 0.0409 µM)
  MIC90: 8 µg/mL (≈ 10.9 µM)
[28]
  MIC: ≤ 0.06 µg/mL
  MIC50: ≤ 0.06 µg/mL
  MIC90: 0.06 µg/mL (≈ 0.0818 µM)
[29]
  MIC50: 0.06 µg/mL (≈ 0.0818 µM)
  MIC90: 1 µg/mL (≈ 1.36 µM)
